The values that follow come from patent US5536744A, “Imidazolinoxyl derivatives” (Dojindo Laboratories, priority 1993, dated 1996).

Like-named read-outs stand apart in the source and are kept apart here.

Series [1] relates to ring samples of the circumflex branch (coronary artery). As to the kind of experiment: In vitro test: relaxation of ring samples of the circumflex branch precontracted by prostaglandin F2α (isometric tension). On the set-up: species or system mongrel adult dogs. The conditions noted are these: for EC50: Canis lupus familiaris, read-out: ED50 value expressed in terms of a minus logarithm of the administered concentration, endothelium absent (converted). The method, then: After an anesthetization of the mongrel adult dogs, the extracted ring samples (outer diameter: about 2 mm) of the circumflex branch were prepared, hung in a chamber filled with 3 ml of a Krebs buffer which was oxidated (with 95% oxygen and 5% […]), balanced with an initial tension of 2 g and subjected to a precontraction by prostaglandin F2α (concentration in the chamber: 2 μM).
To this was added the compound A on an accumulated manner whereby its concentration in the chamber became from 1 μM to 1 mM and the resulting changes in the isometric tension were measured using a tranducer (manufactured by Minebea) and recorded in a pen recorder (SR6211 manufactured by Graphtec). Incidentally, the changes in the tension were evaluated on a basis that the precontraction by prostaglandin F2α was 100%. In some of the samples, the endothelium was exfoliated (confirmed by a disappearance of the relaxation to 1 μM of acetylcholine) and, furthermore, they were subjected to a pretreatment with Methylene Blue, an inhibitor for a soluble guanylate cyclase, (concentration in the chamber: 10 μM; administered 30 minutes before) whereby the effect was investigated.
Therefore, it is supposed that the compounds of the present invention activated the guanylate cyclase on a continued basis whereby the blood vessel was continuously relaxed.

The nature of series [2]: Behavior of compound A in blood flow: blood and urine samples determined by electronic spin resonance after the administration. The conditions noted are these: for clearance (in words) / excretion from the kidney: dog, in vivo.
Protocol: Thus, within a certain period after the administration, samples of blood and urine were collected and "a concentration of the compound A which was unchanged and retained" and "a total concentration after oxidization with potassium ferricyanide" were determined by means of an electronic spin resonance (RF80; Nippon Denshi).
For series [3], the system named is circumflex branch of the left coronary artery. As to the kind of experiment: Test on the relaxation of coronary arteries: coronary blood flow and blood flow status (haemodynamics) in anesthetized open-chest dogs, intracoronary administration. The format is in vivo, mongrel adult dogs. The conditions noted are these: for Blood Flow at Rotation Branch: 4 min.
Protocol: Twenty mongrel adult dogs were anesthetized with 30 mg/kg pentobarbital, their breasts were opened under an artificial respiration and heparin (3,000 IU/kg; each 1,000 IU/mg administered intravenously every 30 minutes thereafe) and aspirin (17 mg/kg) were administered. Then a cannula was inserted near the circumflex branch of the left coronary artery and a perfusion was conducted by means of a bypath from the whole left carotid artery. Coronary blood flow was measured, by an electromagnetic blood flowmeter (MFV-3200 manufactured by Nippon Koden) via a probe for measuring the blood flow (manufactured by Nippon Koden) located at the center of the bypath while the artery pressure and the left cardiac pressure were measured at an underarm artery and by means of a catheter inserted from the apex, respectively.
For series [4] the test system is unchanged. Nature of the series: Effect of various pharmaceuticals on coronary blood flow increase by administration of compound A. The format is in vivo, mongrel adult dogs. The conditions noted are these: 1.0 mM in artery. On the procedure: The compound A was administered for four minutes, by the same manner as in Example 6, to a control group, to a group (LNAME-treated group) which was pretreated with a methyl ester of NG-nitro-L-arginine which was an inhibitor for the production of nitrogen monoxide caused by endothelium (by administering to the coronary artery at the dose of 200 μM for six minutes), to a group (8PT-treated group) which was pretreated with 8-phenyltheophylline which was an adenosnine antagonist (by administering to the coronary artery at the dose of 30 ng/kg/minute) an a group (autonomic nerve blocking group) which was pretreated with a pharmacological autonomic blocking agent (by an intravenous administration of 0.1 mg/kg of atropine, 1 mg/kg of propranolol and 2 mg/kg of phentolamine) to make the concentration of the compound A in the coronary artery 1.0 mM whereby the results were compared.

Series [5] shares this test system. Nature of the series: Comparative Example 1: blood flow after administration of compound A reduced with ascorbic acid. The format is in vivo, mongrel dogs. The method, then: The operation of Example 4 was conducted by administering the compound A wherefrom the N-oxyl radical was inactivated only after reducing with ascorbic acid. […] It is therefore apparent that the pharmacological action was due to the radical in the molecule and that the compounds of the present invention are the pharmaceuticals of a new type.

Take `CC1(C)N=C(c2ccc(C(=O)O)cc2)N([O])C1(C)C` [Compound A]: the “influence of the endothelium on coronary artery relaxation (in words)” value in series [1] (1 μM to 1 mM, with vs without endothelium, FIG. 4) is “stronger than that in the absence of the endothelium”. The EC50 in series [1] (no Methylene Blue) is 10 µM. Also, the EC50 in series [1] (with Methylene Blue 10 μM, 30 minutes before, p<0.01) is 79.4 µM. The “reduction in blood (stability of N-oxyl radical)” value in series [2] (by ascorbic acid, etc. in blood) is recorded as “quickly reduced by ascorbic acid, etc. in blood”. Moreover, in series [2], the “clearance (in words)” value is given as “very prompt” and the “excretion from the kidney” value is reported as “rapidly excreted from the kidney”. In addition, in series [2] (one minute after the administration), the “total amount of compound A remaining in the blood” value is “about 0.3%”. Also, in series [3] (0.1 mM in artery), the “Av. Blood Pressure” value worked out at 130 ± 8 mmHg, the “Left Cardiac dp/dt” value is 1132 ± 60 mmHg/sec, the “Pres. at Final Stage of Left Cardiac Dilation” value (from here on “Pres. at Final Stage”) came out at 11 ± 2 mmHg and the “Pulse Numbers” value came to 155 ± 8 min⁻¹. In series [3] (0.1 mM in artery), the “Blood Flow at Rotation Branch” value was 29.8 ± 3.6 mL/min. In series [3] (0.3 mM in artery), the “Av. Blood Pressure” value is on record as 133 ± 8 mmHg, the “Left Cardiac dp/dt” value amounted to 1210 ± 63 mmHg/sec, the “Pres. at Final Stage” value is 10 ± 2 mmHg and the “Pulse Numbers” value stood at 154 ± 8 min⁻¹. Moreover, the “Blood Flow at Rotation Branch” value in series [3] (0.3 mM in artery, p < 0.05 to the control) came out at 41.5 ± 5.7 mL/min. Moreover, in series [3] (1 mM for four minutes), the “duration of effect on coronary blood flow after completion of the administration” value is ≥ 30 min, the “increase in coronary blood flow (fold)” value is recorded as “about three” and the “increasing rate of coronary blood flow” value is given as “ca. 200%”. Further, in series [3] (1.0 mM in artery), the “Av. Blood Pressure” value amounted to 132 ± 7 mmHg, the “Left Cardiac dp/dt” value amounted to 1241 ± 50 mmHg/sec, the “Pres. at Final Stage” value was found to be 10 ± 2 mmHg and the “Pulse Numbers” value worked out at 157 ± 8 min⁻¹. The “Blood Flow at Rotation Branch” value in series [3] (1.0 mM in artery, p < 0.01 to the control, 0.1 mM and 0.3 mM) amounted to 89.7 ± 10.6 mL/min. In series [3] (0.1, 0.3 and 1.0 mM in artery), the “blood pressure (in words)” value is recorded as “no change”, the “contracting power of the heart (in words)” value was “rather improved”, the “left cardiac dp/dt (in words)” value is “increasing tendency” and the “pressure at the final stage of the left cardiac dilation (in words)” value was “no change”. Also, in series [3] (0.1, 0.3 and 1.0 mM in artery), the “pulse numbers (in words)” value is on record as “no change”. Also, the “coronary blood flow (in words)” value in series [3] (0.1, 0.3 and 1.0 mM in artery, FIG. 2) is given as “significant increase in the coronary blood flow”. Moreover, in series [3] (intracoronary administration), the “side effect (in words)” value is “no side effect was noted”. The “% Increase of blood flow in rotary branch” value (shortened to “% Increase of blood flow”) in series [4] (8PT-treated group) is 120 ± 10%. The “Blood Flow in Rotary Branch, after administration of Compd A” value (from here on “Blood Flow in Rotary Branch … of Compd A”) in series [4] (8PT-treated group, before 23.1 ± 2.7) was 51.6 ± 5.8 mL/min. Besides, the “influence of pretreatments on the action of the compound A (in words)” value in series [4] (LNAME, 8-phenyltheophylline, autonomic blockade) was “none of the pharmaceuticals affected on the action of the compound A”. Besides, the “% Increase of blood flow” value in series [4] (LNAME-treated group) was 155 ± 28%. The “Blood Flow in Rotary Branch … of Compd A” value in series [4] (LNAME-treated group, before 26.1 ± 2.7) worked out at 67.0 ± 11.5 mL/min. Also, the “% Increase of blood flow” value in series [4] (autonomic nerve blocked group) is 137 ± 56%. The “Blood Flow in Rotary Branch … of Compd A” value in series [4] (autonomic nerve blocked group, before 19.5 ± 3.3) is 49.3 ± 18.5 mL/min. For the same molecule, the “% Increase of blood flow” value in series [4] (control group) came out at 164 ± 31%. Also, the “Blood Flow in Rotary Branch … of Compd A” value in series [4] (control group, before 32.0 ± 2.1) is 84.9 ± 13.7 mL/min.

Take `CN(C)c1ccc2nc3ccc(=[N+](C)C)cc-3sc2c1` [Methylene Blue, reference compound]: in series [1] (endothelium absent, 10 μM, 30 minutes before), the “inhibition of the coronary artery relaxing action of compound A (in words)” value is “found to inhibit that”.

Take `CC1(C)N=C(c2ccc(C(=O)O)cc2)N(O)C1(C)C`: in series [2], the “clearance (in words)” value was “very prompt” and the “excretion from the kidney” value is “rapidly excreted from the kidney”. In addition, the “blood flow after the administration” value in series [5] (1.0 mM (FIG. 3), before the administration 22.4 ml/minute) was 22.8 mL/min. Further, the “pharmacological action (in words)” value in series [5] (after reducing with ascorbic acid) is reported as “completely disappeared”. Moreover, in series [5] (before vs after the administration, FIG. 3), the “change in the blood flow (in words)” value is listed as “no changes in the blood flow”.
